Source: the NIST ThermoML archive (doi:10.1021/acs.jced.6b00350)
Several values for one entry are separate records, joined by “and”; a condition that tells them apart may be missing. Identical values can stand only once.

Details: Liquid, Hot wire method

FC(F)CC(F)(F)F [1,1,1,3,3-pentafluoropropane]
Details	thermal conductivity
222.11 K, 10047 kPa	0.1156 W/m/K
222.11 K, 15756 kPa	0.117 W/m/K
222.12 K, 15761 kPa	0.1169 W/m/K
222.12 K, 21261 kPa	0.1184 W/m/K
222.12 K, 21267 kPa	0.1186 W/m/K
222.13 K, 27470 kPa	0.1201 W/m/K
222.13 K, 27478 kPa	0.1202 W/m/K
222.13 K, 33686 kPa	0.1212 W/m/K
222.16 K, 33712 kPa	0.1215 W/m/K
222.37 K, 39767 kPa	0.1235 W/m/K
222.37 K, 47190 kPa	0.1251 W/m/K
222.38 K, 39761 kPa	0.1235 W/m/K
222.38 K, 47197 kPa	0.125 W/m/K
222.38 K, 54316 kPa	0.1267 W/m/K
222.38 K, 54318 kPa	0.1267 W/m/K
222.38 K, 61389 kPa	0.1284 W/m/K
222.38 K, 67942 kPa	0.1297 W/m/K
222.39 K, 61385 kPa	0.1283 W/m/K
222.39 K, 67938 kPa	0.1298 W/m/K
222.5 K, 255 kPa	0.1121 W/m/K
222.5 K, 4863 kPa	0.1134 W/m/K
222.5 K, 4873 kPa	0.1134 W/m/K
222.51 K, 9999 kPa	0.1152 W/m/K
222.51 K, 10021 kPa	0.1152 W/m/K
222.51 K, 15761 kPa	0.1166 W/m/K
222.51 K, 15763 kPa	0.1166 W/m/K
222.51 K, 21262 kPa	0.1182 W/m/K
222.51 K, 21266 kPa	0.1185 W/m/K
222.51 K, 27487 kPa	0.12 W/m/K
222.52 K, 245 kPa	0.112 W/m/K
222.52 K, 27479 kPa	0.1198 W/m/K
222.52 K, 33833 kPa	0.1215 W/m/K
222.53 K, 33800 kPa	0.1213 W/m/K
222.77 K, 67930 kPa	0.1298 W/m/K
222.78 K, 39758 kPa	0.1234 W/m/K
222.78 K, 39765 kPa	0.1236 W/m/K
222.78 K, 47189 kPa	0.1249 W/m/K
222.78 K, 47193 kPa	0.125 W/m/K
222.78 K, 54318 kPa	0.1265 W/m/K
222.78 K, 54319 kPa	0.1266 W/m/K
222.78 K, 61395 kPa	0.1281 W/m/K
222.78 K, 61401 kPa	0.1282 W/m/K
222.78 K, 67928 kPa	0.1296 W/m/K
222.94 K, 4870 kPa	0.113 W/m/K
222.94 K, 10017 kPa	0.1147 W/m/K
222.94 K, 10023 kPa	0.1147 W/m/K
222.94 K, 15762 kPa	0.1162 W/m/K
222.94 K, 15767 kPa	0.1163 W/m/K
222.94 K, 21269 kPa	0.1181 W/m/K
222.94 K, 21277 kPa	0.118 W/m/K
222.94 K, 27478 kPa	0.1199 W/m/K
222.94 K, 27487 kPa	0.1197 W/m/K
222.94 K, 33837 kPa	0.1213 W/m/K
222.94 K, 33847 kPa	0.1213 W/m/K
222.95 K, 242 kPa	0.1115 W/m/K
222.95 K, 262 kPa	0.1116 W/m/K
222.95 K, 4862 kPa	0.113 W/m/K
223.19 K, 67923 kPa	0.1295 W/m/K
223.2 K, 61398 kPa	0.128 W/m/K
223.2 K, 67921 kPa	0.1295 W/m/K
223.21 K, 54306 kPa	0.1263 W/m/K
223.21 K, 61402 kPa	0.128 W/m/K
223.22 K, 39767 kPa	0.1231 W/m/K
223.22 K, 47186 kPa	0.1248 W/m/K
223.22 K, 47187 kPa	0.1248 W/m/K
223.22 K, 54313 kPa	0.1265 W/m/K
223.23 K, 39773 kPa	0.1231 W/m/K
223.38 K, 33868 kPa	0.1211 W/m/K
223.39 K, 33861 kPa	0.1211 W/m/K
223.4 K, 21286 kPa	0.1177 W/m/K
223.4 K, 27486 kPa	0.1196 W/m/K
223.4 K, 27487 kPa	0.1195 W/m/K
223.41 K, 15762 kPa	0.1159 W/m/K
223.41 K, 15769 kPa	0.1159 W/m/K
223.41 K, 21280 kPa	0.1178 W/m/K
223.42 K, 4862 kPa	0.1127 W/m/K
223.42 K, 4869 kPa	0.1127 W/m/K
223.42 K, 10011 kPa	0.1143 W/m/K
223.42 K, 10015 kPa	0.1145 W/m/K
223.43 K, 243 kPa	0.1111 W/m/K
223.43 K, 251 kPa	0.1111 W/m/K
223.65 K, 67907 kPa	0.1291 W/m/K
223.65 K, 67916 kPa	0.1294 W/m/K
223.66 K, 61399 kPa	0.1279 W/m/K
223.67 K, 61396 kPa	0.1278 W/m/K
223.68 K, 54302 kPa	0.1262 W/m/K
223.68 K, 54305 kPa	0.1261 W/m/K
223.69 K, 47183 kPa	0.1247 W/m/K
223.69 K, 47193 kPa	0.1247 W/m/K
223.7 K, 39777 kPa	0.123 W/m/K
223.71 K, 39772 kPa	0.1229 W/m/K
223.87 K, 33885 kPa	0.1209 W/m/K
223.88 K, 33873 kPa	0.1209 W/m/K
241.3 K, 9886 kPa	0.1092 W/m/K
241.3 K, 15301 kPa	0.1111 W/m/K
241.31 K, 9877 kPa	0.1094 W/m/K
241.32 K, 21013 kPa	0.1123 W/m/K
241.32 K, 21021 kPa	0.1121 W/m/K
241.33 K, 33388 kPa	0.115 W/m/K
241.34 K, 33390 kPa	0.1153 W/m/K
241.35 K, 26974 kPa	0.1134 W/m/K
241.35 K, 26975 kPa	0.1134 W/m/K
241.35 K, 46711 kPa	0.1187 W/m/K
241.35 K, 46714 kPa	0.1192 W/m/K
241.36 K, 39784 kPa	0.1173 W/m/K
241.37 K, 297 kPa	0.1065 W/m/K and 0.1069 W/m/K
241.37 K, 4974 kPa	0.1077 W/m/K
241.37 K, 39780 kPa	0.1174 W/m/K
241.38 K, 4982 kPa	0.1074 W/m/K
241.38 K, 53704 kPa	0.1209 W/m/K
241.38 K, 53707 kPa	0.1206 W/m/K
241.41 K, 61279 kPa	0.1222 W/m/K
241.43 K, 68711 kPa	0.1241 W/m/K
241.43 K, 68724 kPa	0.1238 W/m/K
241.68 K, 15290 kPa	0.1103 W/m/K
241.69 K, 9889 kPa	0.1088 W/m/K
241.69 K, 9892 kPa	0.1093 W/m/K
241.69 K, 15293 kPa	0.1107 W/m/K
241.69 K, 21027 kPa	0.1119 W/m/K
241.69 K, 21032 kPa	0.1126 W/m/K
241.7 K, 33378 kPa	0.1158 W/m/K
241.7 K, 33381 kPa	0.1154 W/m/K
241.7 K, 46707 kPa	0.1184 W/m/K
241.71 K, 26968 kPa	0.1137 W/m/K
241.71 K, 26981 kPa	0.1139 W/m/K
241.71 K, 46714 kPa	0.1189 W/m/K
241.72 K, 39777 kPa	0.117 W/m/K
241.73 K, 39791 kPa	0.1169 W/m/K
241.73 K, 53687 kPa	0.1208 W/m/K
241.73 K, 53704 kPa	0.1206 W/m/K
241.75 K, 61249 kPa	0.1223 W/m/K
241.75 K, 61272 kPa	0.1223 W/m/K
241.76 K, 296 kPa	0.1058 W/m/K
241.76 K, 303 kPa	0.1061 W/m/K
241.76 K, 4987 kPa	0.108 W/m/K
241.77 K, 4997 kPa	0.1079 W/m/K
241.77 K, 68669 kPa	0.1236 W/m/K
241.78 K, 68692 kPa	0.1241 W/m/K
